Experimental data reported in patent US11795460B2, “Compositions and methods for TTR gene editing and treating ATTR amyloidosis” (Intellia Therapeutics, Inc., priority 2017, dated 2023).

How the values were obtained:
TTR [1] = assay: TTR editing in primary human hepatocytes electroporated with Spy Cas9 protein loaded with dgRNAs (Table 7); type: cell-based; conditions: dgRNA electroporated with Spy Cas9 protein (RNP)
Outline: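 Primary human or cynomolgus hepatocytes electroporated (Lonza P3 buffer, program EX-147) with Spy Cas9 RNP carrying pre-annealed crRNA/trRNA dual guides. Genomic DNA harvested at 24, 48 or 72 h; target amplicons sequenced by Illumina MiSeq. Percent editing = reads with indels or substitutions over total reads.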

TTR [2] = assay: TTR editing in primary human hepatocytes transfected with Spy Cas9 mRNA and dgRNAs (Table 9); type: cell-based; conditions: dgRNA co-transfected with Spy Cas9 mRNA (SEQ ID NO:2)
Outline: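 PHH sequentially lipofected with Spy Cas9 mRNA (100 ng), then crRNA plus tracrRNA (25 nM each) dual-guide lipoplex. Cells harvested 24, 48 or 72 h post-transfection; TTR target amplicons sequenced on Illumina MiSeq, editing given as percent reads with indels or substitutions over total reads.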

off-target genomic sites = assay: Off-target oligo insertion based assay in HEK293_Cas9 cells, dgRNAs and sgRNAs (Tables 23, 24); type: cell-based, human; conditions: Table 23; TTR dgRNAs in HekCas9 cells, oligo insertion based assay
Outline: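 In HEK293 cells constitutively expressing Spy Cas9, crRNA (15 nM) plus trRNA (15 nM), or modified sgRNAs, were lipofected with donor oligo (10 nM). Genomic DNA was collected at 24 h, and oligo-insertion libraries were sequenced on MiSeq/HiSeq to map potential off-target cleavage sites.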

Row | Sequence | Avg % Deletion (TTR [1]) [%] | Avg % Edit (TTR [1]) [%] | Avg % Insert (TTR [1]) [%] | Avg % Deletion (TTR [2]) [%] | Avg % Edit (TTR [2]) [%] | Avg % Insert (TTR [2]) [%] | # Sites (off-target integration sites detected) (off-target genomic sites)
1 | AGACACCAAAUCUUACUGGA (tested as dual guide RNA, chemistry not given here) [CR003367] | 16.37 | 39.20 | 22.93 | 23.37 | 37.33 | 14.03 | 1
2 | GUCACAGAAACACUCACCGU (tested as dual guide RNA, chemistry not given here) [CR005301] | 1.60 | 25.37 | 24.00 | 1.40 | 6.77 | 5.47 | 0
3 | CCCCUACUCCUAUUCCACCA (tested as dual guide RNA, chemistry not given here) [CR003385] | 2.53 | 40.87 | 38.43 | 3.60 | 36.77 | 33.23 | 3
4 | GACGACAGCCGUGGUGGAAU (tested as dual guide RNA, chemistry not given here) [CR003388] | 0.27 | 5.70 | 5.47 | 1.17 | 12.97 | 11.87 | 2
5 | GGAGUAGGGGCUCAGCAGGG (tested as dual guide RNA, chemistry not given here) [CR003382] | 0.43 | 8.40 | 8.10 | 0.00 | 0.97 | 0.97 | 34
6 | CUGCUCCUCCUCUGCCUUGC (tested as dual guide RNA, chemistry not given here) [CR003335] | 2.50 | 72.20 | 69.70 | 3.40 | 36.43 | 33.03 | 0
7 | AUACCAGUCCAGCAAGGCAG (tested as dual guide RNA, chemistry not given here) [CR003338] | 2.13 | 83.03 | 80.87 | 2.73 | 36.30 | 33.73 | 2
8 | AUUGGUGACGACAGCCGUGG (tested as dual guide RNA, chemistry not given here) [CR003389] | 0.50 | 27.67 | 27.20 | 2.83 | 44.27 | 41.47 | 2
9 | AGUGAGUCUGGAGAGCUGCA (tested as dual guide RNA, chemistry not given here) [CR003359] | 7.50 | 63.77 | 56.33 | 7.33 | 32.93 | 25.67 | 6
10 | CCGUGGUGGAAUAGGAGUAG (tested as dual guide RNA, chemistry not given here) [CR003386] | 0.47 | 4.90 | 4.47 | 0.13 | 8.27 | 8.20 | 1
11 | ACUGAGGAGGAAUUUGUAGA (tested as dual guide RNA, chemistry not given here) [CR003363] | 1.63 | 9.43 | 7.80 | 4.93 | 16.70 | 11.80 | 4
12 | GUGAGUCUGGAGAGCUGCAU (tested as dual guide RNA, chemistry not given here) [CR003360] | 0.63 | 32.23 | 31.67 | 0.90 | 14.90 | 14.13 | 0
13 | CUCUGCAUGCUCAUGGAAUG (tested as dual guide RNA, chemistry not given here) [CR003369] | 0.40 | 3.67 | 3.30 | 0.70 | 1.60 | 0.90 | 2
14 | CUUCUCUACACCCAGGGCAC (tested as dual guide RNA, chemistry not given here) [CR003342] | 0.90 | 32.77 | 31.87 | 1.50 | 22.10 | 20.60 | 0
15 | GCAGGGCGGCAAUGGUGUAG (tested as dual guide RNA, chemistry not given here) [CR003380] | 0.10 | 5.37 | 5.27 | 0.47 | 2.93 | 2.47 | 0
16 | GCCGUGGUGGAAUAGGAGUA (tested as dual guide RNA, chemistry not given here) [CR003387] | 0.20 | 1.87 | 1.70 | 0.03 | 7.87 | 7.80 | 6
17 | CAUUGAUGGCAGGACUGCCU (tested as dual guide RNA, chemistry not given here) [CR003347] | 0.43 | 82.30 | 81.97 | 0.17 | 41.47 | 41.33 | 1
18 | ACACAAAUACCAGUCCAGCA (tested as dual guide RNA, chemistry not given here) [CR003339] | 34.07 | 43.00 | 8.93 | 34.23 | 36.43 | 2.27 | 3
19 | UUCUUUGGCAACUUACCCAG (tested as dual guide RNA, chemistry not given here) [CR003357] | 0.77 | 36.23 | 35.47 | 0.63 | 25.93 | 25.30 | 3
20 | GGGAUUGGUGACGACAGCCG (tested as dual guide RNA, chemistry not given here) [CR003390] | 0.23 | 15.97 | 15.80 | 1.60 | 20.23 | 18.73 | 1
